From paper PMC8301025 (Biology, 2021)

Biological target: T1, CLas GMPS (guanosine 5′-monophosphate synthetase)
T1 construct: gene guaA
Format: biochemical, Candidatus Liberibacter asiaticus

With Nc1nc(=O)c2nc(CNc3ccc(C(=O)N[C@@H](CCC(=O)O)C(=O)O)cc3)cnc2[nH]1 [Compound5481, folic acid] the Ki was 52 µM.

CCN(CCCOc1ccc2c(Nc3cc(CC(=O)Nc4cccc(F)c4)n[nH]3)ncnc2c1)CCOP(=O)(O)O [Compound1334, AZD1152] was tested, and the Ki was 4.05 µM.
